Assays:
[1] = molecular target: Phosphoenolpyruvate carboxykinase, cytosolic [GTP] [H477R] (Rat, UniProt P07379, H477R); assay: PEPCK Inhibition Assay
Procedure: (§1) The inhibition of H477R PEPCK by β-sulfopyruvate (βSP), oxalate, and GMPPCP was conducted in the direction of PEP synthesis (OAA → PEP). The Michaelis constant of OAA was determined at various fixed concentrations of β-SP (0−100 μM) or oxalate (0−1000 μM), and the Michaelis constant for GTP was determined at various fixed concentrations of GMPPCP (0-800 μM).

[2] = molecular target: T1, Phosphoenolpyruvate carboxykinase, cytosolic [GTP] (Rattus norvegicus, UniProt P07379); assay: PEPCK Inhibition Assay
T1 sequence (P07379 whole entry): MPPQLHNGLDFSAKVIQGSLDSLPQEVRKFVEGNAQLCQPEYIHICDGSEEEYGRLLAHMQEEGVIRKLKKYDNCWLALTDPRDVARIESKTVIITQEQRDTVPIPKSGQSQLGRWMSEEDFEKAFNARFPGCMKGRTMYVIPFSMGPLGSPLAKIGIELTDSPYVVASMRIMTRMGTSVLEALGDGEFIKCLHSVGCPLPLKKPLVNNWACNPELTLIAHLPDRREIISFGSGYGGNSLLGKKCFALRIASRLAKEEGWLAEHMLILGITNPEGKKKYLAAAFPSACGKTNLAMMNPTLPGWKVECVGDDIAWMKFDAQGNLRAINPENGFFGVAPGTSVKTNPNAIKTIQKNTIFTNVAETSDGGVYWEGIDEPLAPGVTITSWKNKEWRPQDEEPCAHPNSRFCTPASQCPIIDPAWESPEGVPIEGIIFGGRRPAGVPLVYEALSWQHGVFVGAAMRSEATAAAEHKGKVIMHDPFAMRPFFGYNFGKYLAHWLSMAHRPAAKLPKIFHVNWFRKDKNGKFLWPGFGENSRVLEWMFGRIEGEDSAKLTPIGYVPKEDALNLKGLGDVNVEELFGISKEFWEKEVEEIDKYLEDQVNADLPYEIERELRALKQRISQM
Procedure: as §1

Phosphoenolpyruvate carboxykinase, cytosolic [GTP] [H477R], sequence (P07379 whole entry H477R): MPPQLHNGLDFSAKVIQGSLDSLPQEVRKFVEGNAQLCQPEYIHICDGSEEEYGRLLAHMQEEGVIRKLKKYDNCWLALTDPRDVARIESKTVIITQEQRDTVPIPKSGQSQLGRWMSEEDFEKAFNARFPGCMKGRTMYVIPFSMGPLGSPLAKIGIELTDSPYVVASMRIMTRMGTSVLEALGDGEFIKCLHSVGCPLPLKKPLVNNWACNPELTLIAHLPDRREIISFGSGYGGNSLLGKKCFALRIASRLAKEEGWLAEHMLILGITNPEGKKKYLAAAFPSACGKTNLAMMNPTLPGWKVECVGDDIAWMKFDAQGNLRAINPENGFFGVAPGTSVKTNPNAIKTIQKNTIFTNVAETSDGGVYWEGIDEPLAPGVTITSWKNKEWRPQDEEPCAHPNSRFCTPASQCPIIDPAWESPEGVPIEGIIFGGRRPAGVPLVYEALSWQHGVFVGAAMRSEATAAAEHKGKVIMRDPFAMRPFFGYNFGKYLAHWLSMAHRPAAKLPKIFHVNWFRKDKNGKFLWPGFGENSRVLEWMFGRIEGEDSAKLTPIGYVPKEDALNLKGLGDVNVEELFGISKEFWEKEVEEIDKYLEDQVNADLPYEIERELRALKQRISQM

Row | Compound | Ki [1] | Ki [2]
1 | O=C(O)C(=O)CS(=O)(=O)O [β-Sulfopyruvate] | 37 µM | –
2 | O=C(O)CC(=O)C(=O)O [keto-Oxaloacetate] | 441 µM | –
3 | Nc1nc(O)c2ncn([C@@H]3O[C@H](COP(=O)(O)OP(=O)(O)C[P+]([O-])(O)O)[C@@H](O)[C@H]3O)c2n1 [β,γ-methyleneguanosine 5′-triphosphate] | 696 µM | 150 µM
4 | C=C(OP(=O)(O)O)C(=O)O [PHOSPHOENOLPYRUVATE] | 289 µM | –

— BindingDB's records for doi:10.1021/acs.biochem.7b00178 (University of Waterloo, 2017)
